Measurements reported in patent publication US20120165408A1, “ORAL COMPOSITION FOR ALLEVIATING ROUGH SKIN” (Shiseido Company, Ltd., priority 2009, published 2012).

Assays:
[1] = test system: skin barrier function in SDS-treated mice; experiment: Rough skin experiment, short term (11-day) oral administration: transepidermal water loss after SDS treatment; assay type: in vivo, HR-1 hairless mice; settings: for Δ(delta) TEWL value: difference from the negative control (Dunnett's test, p<5%): 2 hours after the second SDS treatment
Experimental: HR-1 hairless mice (males, seven-week old, Hoshino Laboratory Animals, Inc.) were subjected to the experiment. Each experimental group included seven to eight mice.
In order to examine the effect of the amino acid on the rough skin, 1 mM or 10 mM D-glutamic acid was given with drinking water. The negative control employed was drinking water containing no D-glutamic acid.
An unwoven fabric soaked with a 10% SDS solution was brought into contact for five minutes with one side of the back of a mouse under anesthesia (hereinafter referred to as “SDS treatment”) on the 10th and 11th days after starting the administration of D-glutamic acid. The SDS treatment may be conducted two to five times repetitively until the rough skin becomes evident. In this Example, the SDS treatments on the 10th and 11th days after starting the administration of D-glutamic acid are referred to as the first and the second SDS treatments, respectively. Also in the following transepidermal water loss measurements, an area treated with SDS is referred to as an “SDS treated area,” while an area of the opposite side which was not treated with SDS is referred to as an “SDS non-treated area.”
In order to quantify the rough skin condition, the transepidermal water loss was measured immediately before the first SDS treatment (before SDS treatment) and two hours after the first and the second SDS treatments using a transepidermal water loss meter (Tewameter TM-300, manufactured by Courage+Khazaka electronic GmbH) in accordance with the instruction provided by the manufacturer. Here, the value obtained by subtracting the quantity of the transepidermal water loss of the SDS non-treated area from the quantity of the transepidermal water loss of the SDS treated area was regarded as a “Δ(delta) TEWL value.”
The error bars for relevant experimental conditions are the standard deviations of the measured values of the results of the experiments seven to eight times under identical conditions. The asterisk (*) indicates p<5% by Dunnett's test.

[2] = test system: skin barrier function in SDS-treated mice; experiment: Rough skin experiment, long term (28-day) oral administration: transepidermal water loss after SDS treatment; assay type: in vivo, HR-1 hairless mice; settings: 10 mM in drinking water, two hours after the second SDS treatment (28th day); for Δ(delta) TEWL value: negative control 2.4
Experimental: The administration of the amino acid, the rough skin experiments and the quantification of the transepidermal water loss were conducted similarly to Example 1 using the HR-1 hairless mice described above. The amino acid employed was 10 mM L- or D-glutamic acid or L- or D-glutamine. The negative control employed was drinking water containing no amino acid. The SDS treatment was conducted on the 27th and 28th days after starting the administration of the amino acid. In this Example, the SDS treatments on the 27th and 28th days after starting the administration of the amino acid described above are referred to as the first and the second SDS treatments, respectively. The quantification of the transepidermal water loss was conducted two hours after the second SDS treatment.
The error bars for relevant experimental conditions are the standard deviations of the measured values of the results of the experiments repeated five times under identical conditions. The asterisk (*) indicates p<5% by Dunnett's test.

SMILES	Δ(delta) TEWL value: difference from the negative control (Dunnett's test, p<5%) ([1]; 1 mM in drinking water)	Δ(delta) TEWL value ([1]; 1 mM in drinking water, immediately before the first SDS treatment (10th day), negative control 0.7)	Δ(delta) TEWL value ([1]; 1 mM in drinking water, two hours after the first SDS treatment (10th day), negative control 2.2)	Δ(delta) TEWL value ([1]; 1 mM in drinking water, two hours after the second SDS treatment (11th day), negative control 7.0)	Δ(delta) TEWL value: difference from the negative control (Dunnett's test, p<5%) ([1]; 10 mM in drinking water)	Δ(delta) TEWL value ([1]; 10 mM in drinking water, immediately before the first SDS treatment (10th day), negative control 0.7)	Δ(delta) TEWL value ([1]; 10 mM in drinking water, two hours after the first SDS treatment (10th day), negative control 2.2)	Δ(delta) TEWL value ([1]; 10 mM in drinking water, two hours after the second SDS treatment (11th day), negative control 7.0)	Δ(delta) TEWL value: difference from the negative control (Dunnett's test, p<5%) [2]	Δ(delta) TEWL value [2]
N[C@H](CCC(=O)O)C(=O)O [D-glutamic acid]	significant difference	0.4 g/m^2/h	1.5 g/m^2/h	3.2 g/m^2/h	significant difference	0.1 g/m^2/h	1.2 g/m^2/h	3.8 g/m^2/h	significant difference	−0.9 g/m^2/h
NC(=O)CC[C@@H](N)C(=O)O [D-glutamine]	–	–	–	–	–	–	–	–	no significant difference	3.3 g/m^2/h
N[C@@H](CCC(=O)O)C(=O)O [L-glutamic acid]	–	–	–	–	–	–	–	–	no significant difference	1.1 g/m^2/h
NC(=O)CC[C@H](N)C(=O)O [L-glutamine]	–	–	–	–	–	–	–	–	no significant difference	2.3 g/m^2/h
